Like-named read-outs stand apart in the source and are kept apart here. Blank lines part the entries; values can stand above or below the compound they belong to.
Legend:
[1] = Example 2: repeat of the Example 1 study, with edaravone metabolites in plasma; assay type: in vivo, human; conditions: for Ratio conjugate-to-parent drug (AUClast): ratio calculated using AUClast (h · μMol/L); for Edaravone plasma concentration: time Pre; for AUC(0-inf): extrapolated to infinity
Source text: The study described in Example 1 was repeated, again using 18 healthy male and female human subjects.

[2] = Example 1: single dose, randomized, two-period, cross-over pharmacokinetic study, oral solution vs i.v. infusion; assay type: in vivo, human; conditions: for Edaravone plasma concentration: time Pre
Method: A single dose, randomized, two-period, cross-over study was conducted in 18 healthy male and female human subjects.

[3] = Dissolution rate of edaravone in water; assay type: physicochemical; conditions: in the presence of an alkalizing agent, especially at at least 0.3 grams edaravone per liter
Source text: The oxides and hydroxides of alkaline metals are preferably selected from NaOH, KOH, LiOH and combinations thereof. The oxides and hydroxides of alkali-earth metals are preferably selected from Ca(OH)2, CaO, Mg(OH)2, MgO and combinations thereof. The salts of weak organic and weak inorganic acids are preferably selected from carbonate, bicarbonate, borate, carboxylate (e.g. lactate, citrate, acetate, formate and oxalate), phosphate, sulfate and combinations thereof. The alkaline amines are preferably selected from tris(hydroxymethyl)aminomethane, ethanolamine, diethanolamine, triethanolamine, N-methyl-glucamine, glucosamine, ethylenediamine, diethylamine, triethylamine, isopropylamine, diisopropylamine, ammonia and combinations thereof. The alkaline amino acids are preferably selected from arginine, histidine, lysine and combinations thereof.

[4] = male Wistar rats, cited from earlier work
[5] = SD rats, in comparison to intravenous administration; cited from earlier work
[6] = rats, oral, dose of 27 mg/kg, suspended with 0.5% CMC-Na, compared to 100% for intravenous; cited from earlier work
[7] = APP/PS1 Mice, oral 33.2 mg/kg/d; cited from earlier work
APP/PS1 mice = conditions: cited from earlier work
[8] = i.v. infusion of edaravone 60 mg (n = 18)
[9] = oral administration of edaravone 140 mg (n = 18)
[10] = both sexes, human, plasma, iv, Example 2, i.v. infusion 60 mg
[11] = both sexes, human, plasma, iv, Example 2, i.v. infusion (60 mg)
[12] = both sexes, human, plasma, Example 2, oral administration 140 mg
[13] = both sexes, human, plasma, Example 2, oral administration (140 mg)

- Ratio conjugate-to-parent drug (AUClast) [1, 8]: 9.9 ± 2.7
- Ratio conjugate-to-parent drug (AUClast) [1, 9]: 9.5 ± 2.8
SMILES: Cc1cc(OS(=O)(=O)O)n(-c2ccccc2)n1 [Sulfate conjugate]

- Ratio conjugate-to-parent drug (AUClast) [1, 8]: 1.4 ± 1.0
- Ratio conjugate-to-parent drug (AUClast) [1, 9]: 1.8 ± 0.8
SMILES: Cc1cc(O[C@@H]2O[C@H](C(=O)O)[C@@H](O)[C@H](O)[C@H]2O)n(-c2ccccc2)n1 [Glucuronide conjugate]

- Edaravone plasma concentration ([2]; Example 1, i.v. infusion (60 mg, 60 minutes)): 0 ng/mL
- Edaravone plasma concentration ([2]; Example 1, oral administration (140 mg)): 0 ng/mL
- systemic bioavailability (Fabs) ([2]; Example 1, oral compared to i.v. infusion): 79%
- time at which peak maximum concentrations are reached after administration ([2]; Example 1, orally administered): about 15 min
- Edaravone plasma concentration ([1]; Example 2, i.v. infusion (60 mg)): 0 ng/mL
- Edaravone plasma concentration ([1]; Example 2, oral administration (140 mg)): 0 ng/mL
- time at which peak maximum concentrations are reached after administration ([1]; Example 2, orally administered): about 14 min
- bioavailability ([1]; both sexes, human, plasma, 140 mg, Example 2, oral compared to i.v. infusion, read-out: systemic bioavailability (Fabs)): 93%
- AUC(0-t) [1, 10]: 1220 ng·h/mL
- Cmax [1, 10]: 943 ng/mL
- AUC(0-inf) [1, 10]: 1210 ng·h/mL
- concentration at 0.17 h [1, 11]: 373 ng/mL
- concentration at 0.5 hrs [1, 11]: 696 ng/mL
- concentration at 1 hrs [1, 11]: 943 ng/mL
- concentration at 1.5 hrs [1, 11]: 298 ng/mL
- concentration at 4 h [1, 11]: 36 ng/mL
- concentration at 6 h [1, 11]: 13 ng/mL
- concentration at 8 h [1, 11]: 7 ng/mL
- concentration at 10 h [1, 11]: 5 ng/mL
- AUC(0-t) [1, 12]: 2560 ng·h/mL
- Cmax [1, 12]: 3530 ng/mL
- Tmax [1, 12]: 13.8 min
- AUC(0-inf) [1, 12]: 2570 ng·h/mL
- concentration at 0.083 h ([1]; both sexes, human, plasma, Example 2, oral administration (140 mg), 0.083 hrs): 1530 ng/mL
- concentration at 0.17 h [1, 13]: 2760 ng/mL
- concentration at […] ([1]; both sexes, human, plasma, Example 2, oral administration (140 mg), 0.25 hrs): 3060 ng/mL
- concentration at 0.5 hrs [1, 13]: 2000 ng/mL
- concentration at 1 hrs [1, 13]: 762 ng/mL
- concentration at 1.5 hrs [1, 13]: 388 ng/mL
- concentration at 2 hrs ([1]; both sexes, human, plasma, Example 2, oral administration (140 mg), 2 hrs): 228 ng/mL
- concentration at 4 h [1, 13]: 63 ng/mL
- concentration at 6 h [1, 13]: 24 ng/mL
- concentration at 8 h [1, 13]: 13 ng/mL
- concentration at 10 h [1, 13]: 8 ng/mL
- rate at which edaravone dissolves in water [3]: increased substantially
SMILES: CC1=NN(c2ccccc2)C(=O)C1 [Edaravone, 3-methyl-1-phenyl-2-pyrazolin-5-one]
- contribution of gastrointestinal metabolism to the overall plasma metabolism profile ([1]; Example 2, oral in comparison to intravenous administration): No indication for a relevant contribution of gastrointestinal metabolism
- plasma concentration ([4]; orally administered at 10 mg/kg): 243 ng/mL
- plasma concentration ([4]; orally administered at 30 mg/kg): 1314 ng/mL
- plasma concentration ([4]; orally administered at 100 mg/kg): 10999 ng/mL
- oral bioavailability [5]: ~5.8%
- absolute bioavailability (Fabs) [6]: 5.23%
- bioavailability of oral edaravone, of the i.v. delivery [7]: 38%
- cognitive deficits (escaping latency in platform testing, annulus crossing in probing test) (APP/PS1 mice): prominently attenuated
- Aβ levels in the brain (APP/PS1 mice; oral intake): significantly reduced
- Aβ plaque burden in the hippocampus and neocortex (APP/PS1 mice; oral intake): markedly alleviated
